# ChEMBL document CHEMBL5579892, “Rational Design, Synthesis, and Structure-Activity Relationship of a Novel Isoquinolinone-Based Series of HBV Capsid Assembly Modulators Leading to the Identification of Clinical Candidate AB-836” (J Med Chem, 2024)
# Calls of active or inactive are those of the source. No cut-off for these calls is given here.
# How the values were obtained:
# Hepatitis B virus [1] = assay: Antiviral activity against HBV infected in HepDE19 cells; assay type: functional, organism-based
# [2] = Cytotoxicity against human HepDE19 cells by CellTiter-Glo analysis; assay type: toxicity, cell-based
# [3] = Microsomal stability in mouse liver microsomes assessed as intrinsic clearance; assay type: ADME, Microsome; settings: read-out: CLH
# [4] = Microsomal stability in human liver microsomes assessed as intrinsic clearance; assay type: ADME, Microsome; settings: read-out: CLH
# Cytochrome P450 1A2 = biological target: T1, Cytochrome P450 1A2 (Homo sapiens, UniProt P05177); assay: Inhibition of CYP1A2 (unknown origin); assay type: ADME
# T1 sequence (P05177 whole entry): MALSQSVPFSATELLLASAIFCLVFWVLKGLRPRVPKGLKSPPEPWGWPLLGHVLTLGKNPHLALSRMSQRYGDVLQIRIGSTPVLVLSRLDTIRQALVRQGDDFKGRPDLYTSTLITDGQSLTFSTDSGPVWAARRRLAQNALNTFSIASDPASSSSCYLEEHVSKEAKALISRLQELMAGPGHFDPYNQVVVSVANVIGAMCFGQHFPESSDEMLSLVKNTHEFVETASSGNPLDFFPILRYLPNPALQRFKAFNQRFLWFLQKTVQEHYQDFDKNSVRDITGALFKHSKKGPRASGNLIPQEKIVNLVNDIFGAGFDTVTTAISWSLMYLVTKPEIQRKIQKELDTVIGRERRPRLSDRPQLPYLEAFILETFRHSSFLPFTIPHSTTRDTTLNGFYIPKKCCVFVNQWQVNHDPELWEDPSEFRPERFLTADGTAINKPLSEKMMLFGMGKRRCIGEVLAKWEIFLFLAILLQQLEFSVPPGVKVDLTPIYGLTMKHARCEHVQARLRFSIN
# Cytochrome P450 2B6 = biological target: T2, Cytochrome P450 2B6 (Homo sapiens, UniProt P20813); assay: Inhibition of CYP2B6 (unknown origin); assay type: ADME
# T2 sequence (P20813 whole entry): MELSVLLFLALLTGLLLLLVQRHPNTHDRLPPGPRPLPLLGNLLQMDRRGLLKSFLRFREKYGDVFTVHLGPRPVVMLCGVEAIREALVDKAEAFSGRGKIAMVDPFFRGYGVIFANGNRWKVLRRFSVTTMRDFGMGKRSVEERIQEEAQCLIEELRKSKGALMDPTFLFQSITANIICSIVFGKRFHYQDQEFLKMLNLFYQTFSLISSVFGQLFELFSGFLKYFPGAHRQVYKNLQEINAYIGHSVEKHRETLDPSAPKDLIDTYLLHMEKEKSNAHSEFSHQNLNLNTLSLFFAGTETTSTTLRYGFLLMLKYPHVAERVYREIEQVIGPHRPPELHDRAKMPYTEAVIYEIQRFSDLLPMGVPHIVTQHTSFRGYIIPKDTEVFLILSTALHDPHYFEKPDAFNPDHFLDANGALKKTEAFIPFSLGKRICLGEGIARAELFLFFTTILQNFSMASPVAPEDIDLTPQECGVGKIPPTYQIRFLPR
# Cytochrome P450 2C9 = Cytochrome P450 2C9 (Homo sapiens, UniProt P11712); assay: Inhibition of CYP2C9 (unknown origin); assay type: ADME
# Chain of Cytochrome P450 2C9 (P11712 whole entry): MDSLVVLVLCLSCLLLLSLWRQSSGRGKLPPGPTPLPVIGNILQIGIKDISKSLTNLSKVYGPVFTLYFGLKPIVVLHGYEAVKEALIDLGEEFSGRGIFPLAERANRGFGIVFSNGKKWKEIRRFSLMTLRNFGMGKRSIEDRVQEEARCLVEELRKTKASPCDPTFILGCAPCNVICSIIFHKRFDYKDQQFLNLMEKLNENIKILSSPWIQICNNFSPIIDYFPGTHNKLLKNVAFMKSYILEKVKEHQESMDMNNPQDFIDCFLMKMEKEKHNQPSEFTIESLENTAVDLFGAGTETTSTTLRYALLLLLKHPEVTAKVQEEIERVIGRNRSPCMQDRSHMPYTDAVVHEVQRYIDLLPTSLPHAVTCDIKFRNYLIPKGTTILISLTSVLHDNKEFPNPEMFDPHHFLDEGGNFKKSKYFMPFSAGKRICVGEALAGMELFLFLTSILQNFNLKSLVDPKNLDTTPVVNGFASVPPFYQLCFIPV
# Cytochrome P450 2C19 = Cytochrome P450 2C19 (Homo sapiens, UniProt P33261); assay: Inhibition of CYP2C19 (unknown origin); assay type: ADME
# Chain of Cytochrome P450 2C19 (P33261 whole entry): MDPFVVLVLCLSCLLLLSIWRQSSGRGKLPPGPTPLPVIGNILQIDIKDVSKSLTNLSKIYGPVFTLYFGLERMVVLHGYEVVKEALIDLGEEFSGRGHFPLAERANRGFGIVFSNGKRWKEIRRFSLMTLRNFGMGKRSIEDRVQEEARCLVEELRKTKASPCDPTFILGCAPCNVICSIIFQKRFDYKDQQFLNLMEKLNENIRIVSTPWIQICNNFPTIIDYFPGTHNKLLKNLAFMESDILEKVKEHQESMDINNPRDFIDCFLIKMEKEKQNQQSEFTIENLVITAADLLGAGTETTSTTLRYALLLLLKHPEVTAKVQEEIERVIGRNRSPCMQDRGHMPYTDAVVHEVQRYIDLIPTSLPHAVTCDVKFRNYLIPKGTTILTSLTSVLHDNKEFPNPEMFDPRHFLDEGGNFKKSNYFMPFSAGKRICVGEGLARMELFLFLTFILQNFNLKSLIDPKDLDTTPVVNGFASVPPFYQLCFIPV
# Cytochrome P450 2D6 = Cytochrome P450 2D6 (Homo sapiens, UniProt P10635); assay: Inhibition of CYP2D6 (unknown origin); assay type: ADME
# Chain of Cytochrome P450 2D6 (P10635 whole entry): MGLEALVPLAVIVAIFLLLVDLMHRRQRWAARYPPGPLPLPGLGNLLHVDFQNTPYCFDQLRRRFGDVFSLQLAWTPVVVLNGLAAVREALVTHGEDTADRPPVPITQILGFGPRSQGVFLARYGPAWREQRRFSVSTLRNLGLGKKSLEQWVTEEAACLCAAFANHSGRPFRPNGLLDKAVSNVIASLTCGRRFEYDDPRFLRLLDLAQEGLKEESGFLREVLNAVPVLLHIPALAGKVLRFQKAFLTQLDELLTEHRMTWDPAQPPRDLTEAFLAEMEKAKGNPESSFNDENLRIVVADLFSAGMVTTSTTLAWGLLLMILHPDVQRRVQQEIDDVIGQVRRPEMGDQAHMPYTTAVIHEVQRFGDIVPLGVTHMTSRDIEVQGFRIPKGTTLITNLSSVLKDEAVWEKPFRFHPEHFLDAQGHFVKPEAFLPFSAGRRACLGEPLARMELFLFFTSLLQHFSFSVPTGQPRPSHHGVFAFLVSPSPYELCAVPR
# Cytochrome P450 3A4 = Cytochrome P450 3A4 (Homo sapiens, UniProt P08684); assay: Inhibition of CYP3A4 (unknown origin); assay type: ADME
# Chain of Cytochrome P450 3A4 (P08684 whole entry): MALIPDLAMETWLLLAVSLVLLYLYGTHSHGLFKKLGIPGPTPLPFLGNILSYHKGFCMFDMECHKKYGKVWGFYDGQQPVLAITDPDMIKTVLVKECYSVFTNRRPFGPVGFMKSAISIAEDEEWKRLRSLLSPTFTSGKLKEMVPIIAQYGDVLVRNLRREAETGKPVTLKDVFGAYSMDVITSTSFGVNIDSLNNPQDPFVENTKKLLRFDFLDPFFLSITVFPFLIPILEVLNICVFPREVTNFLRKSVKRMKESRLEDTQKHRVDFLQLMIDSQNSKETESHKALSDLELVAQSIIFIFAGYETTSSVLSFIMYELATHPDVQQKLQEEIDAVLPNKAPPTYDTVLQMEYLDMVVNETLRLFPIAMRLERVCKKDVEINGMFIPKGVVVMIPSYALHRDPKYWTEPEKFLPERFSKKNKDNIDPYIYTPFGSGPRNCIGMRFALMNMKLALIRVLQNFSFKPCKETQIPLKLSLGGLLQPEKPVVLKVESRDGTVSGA
# [5] = Kinetic solubility in PBS at pH 7.4; assay type: physicochemical; settings: read-out: Kinetic_solubility
# [6] = Half-life in CD-1 mouse at 10 mg/kg, po; assay type: ADME, organism-based; settings: in vivo
# [7] = Half-life in CD-1 mouse at 2 mg/kg, iv; assay type: ADME, organism-based; settings: in vivo
# [8] = AUC (0 to infinity) in CD-1 mouse at 10 mg/kg, po; assay type: ADME, organism-based; settings: in vivo
# [9] = AUC (0 to infinity) in CD-1 mouse at 2 mg/kg, iv; assay type: ADME, organism-based; settings: in vivo
# [10] = Oral bioavailability in CD-1 mouse at 10 mg/kg; assay type: ADME, organism-based; settings: in vivo
# Hepatitis B virus [11] = assay: Antiviral activity against HBV infected in po dosed NOD.CB17-Prkdcscid/J mouse assessed as reduction in viral DNA administered once daily or twice daily for 7 days by qPCR analysis; assay type: functional, organism-based; settings: dose 3-30 mg/kg, time 7.0 day
# Hepatitis B virus [12] = assay: Antiviral activity against HBV infected in NOD.CB17-Prkdcscid/J mouse assessed as log10 reduction in viral DNA at 30 mg/kg, po administered twice daily for 7 days by qPCR analysis; assay type: functional; settings: time 7 day
# Hepatitis B virus [13] = assay: Antiviral activity against HBV infected in NOD.CB17-Prkdcscid/J mouse assessed as log10 reduction in viral DNA at 10 mg/kg, po administered twice daily for 7 days by qPCR analysis; assay type: functional; settings: time 7 day
# Hepatitis B virus [14] = assay: Antiviral activity against HBV infected in NOD.CB17-Prkdcscid/J mouse assessed as log10 reduction in viral DNA at 30 mg/kg, po administered once daily for 7 days by qPCR analysis; assay type: functional; settings: time 7 day
# [15] = Microsomal stability in rat liver microsomes assessed as intrinsic clearance; assay type: ADME, Microsome; settings: read-out: CLH
# [16] = Microsomal stability in monkey liver microsomes assessed as intrinsic clearance; assay type: ADME, Macaca mulatta, Microsome; settings: rhesus monkey, read-out: CLH
# [17] = Clearance in CD-1 mouse at 2 mg/kg, iv; assay type: ADME, organism-based; settings: in vivo
# [18] = Drug concentration in CD-1 mouse liver at 10 mg/kg, po measured after 24 hrs; assay type: ADME, organism-based; settings: read-out: Ct
# [19] = Drug concentration in CD-1 mouse liver assessed as fold increase in EC90 concentration required for antiviral activity against HBV infected in HepDE19 cells at 10 mg/kg, po measured after 24 hrs; assay type: ADME, organism-based; settings: in vivo
# [20] = AUC (0 to infinity) in rat at 10 mg/kg, po; assay type: ADME, organism-based; settings: in vivo
# [21] = AUC (0 to infinity) in monkey at 10 mg/kg, po; assay type: ADME, organism-based, Macaca mulatta; settings: rhesus monkey, in vivo
# [22] = Clearance in rat at 2 mg/kg, iv; assay type: ADME, organism-based; settings: in vivo
# [23] = Clearance in monkey at 2 mg/kg, iv; assay type: ADME, organism-based, Macaca mulatta; settings: rhesus monkey, in vivo
# [24] = Half-life in rat at 10 mg/kg, po; assay type: ADME, organism-based; settings: in vivo
# [25] = Half-life in monkey at 10 mg/kg, po; assay type: ADME, organism-based, Macaca mulatta; settings: rhesus monkey, in vivo
# [26] = Drug concentration in rat liver at 10 mg/kg, po measured after 24 hrs; assay type: ADME, organism-based; settings: read-out: Ct
# [27] = Drug concentration in rat liver assessed as fold increase in EC90 concentration required for antiviral activity against HBV infected in HepDE19 cells at 10 mg/kg, po measured after 24 hrs; assay type: ADME, organism-based; settings: in vivo
# Hepatitis B virus [28] = assay: Antiviral activity against HBV infected in NOD.CB17-Prkdcscid/J mouse assessed as log10 reduction in viral DNA at 3 mg/kg, po administered once daily for 7 days by qPCR analysis; assay type: functional; settings: time 7 day
# Hepatitis B virus [29] = assay: Antiviral activity against HBV infected in NOD.CB17-Prkdcscid/J mouse assessed as log10 reduction in viral DNA at 10 mg/kg, po administered once daily for 7 days by qPCR analysis; assay type: functional; settings: time 7 day
# Hepatitis B virus [30] = assay: Antiviral activity against HBV infected in HepDE19 cells assessed as effect on pgRNA core protein at 1 uM; assay type: functional, organism-based
# Hepatitis B virus [31] = assay: Antiviral activity against HBV infected in HepDE19 cells assessed as effect on capsid particle formation at 1 uM; assay type: functional, organism-based
# Hepatitis B virus [32] = assay: Antiviral activity against HBV infected in HepG2-hNTCP-C4 cells assessed as inhibition of HBsAg formation preincubated with compound followed by viral infection; assay type: functional, organism-based
# Hepatitis B virus [33] = assay: Antiviral activity against HBV infected in HepG2-hNTCP-C4 cells assessed as inhibition of cccDNA formation preincubated with compound followed by viral infection; assay type: functional, organism-based
# Hepatitis B virus [34] = assay: Antiviral activity against HBV infected in HepG2-hNTCP-C4 cells assessed as inhibition of HBsAg formation preincubated with virus followed by compound addition; assay type: functional, organism-based
# Hepatitis B virus [35] = assay: Antiviral activity against HBV infected in HepG2-hNTCP-C4 cells assessed as inhibition of cccDNA formation preincubated with virus followed by compound addition; assay type: functional, organism-based
compound,measurement,setting,value
CC(c1c[nH]c(=O)c2ccccc12)N(C)C(=O)Nc1ccc(F)c(Cl)c1 (stereo not drawn),EC50,Hepatitis B virus [1],0.045 µM
same,CC50,[2],> 25 µM
same,microsomal CLint,[3],29 µL/min/mg
same,microsomal CLint,[4],44 µL/min/mg
same,IC50,Cytochrome P450 1A2,> 20 µM
same,IC50,Cytochrome P450 2B6,> 20 µM
same,IC50,Cytochrome P450 2C9,> 20 µM
same,IC50,Cytochrome P450 2C19,> 20 µM
same,IC50,Cytochrome P450 2D6,> 20 µM
same,IC50,Cytochrome P450 3A4,> 20 µM
same,solubility kinetic,[5],135 µM
same,half-life,[6],2.2 h
same,half-life,[7],2.4 h
same,AUC(0-inf),[8],13800 ng·h/mL
same,AUC(0-inf),[9],3520 ng·h/mL
same,bioavailability,[10],80%
same,Activity,Hepatitis B virus [11],Dose-Dependent Effect
same,log(activity),Hepatitis B virus [12],1.4
same,log(activity),Hepatitis B virus [13],0.6
same,log(activity),Hepatitis B virus [14],0.3
C[C@H](c1c[nH]c(=O)c2cc(F)c(F)cc12)N(C)C(=O)Nc1ccc(F)c(C#N)c1,EC50,Hepatitis B virus [1],0.01 µM
same,CC50,[2],> 25 µM
same,microsomal CLint,[3],10 µL/min/mg
same,microsomal CLint,[4],31 µL/min/mg
same,solubility kinetic,[5],120 µM
same,half-life,[6],3.1 h
same,AUC(0-inf),[8],13000 ng·h/mL
same,microsomal CLint,[15],46 µL/min/mg
same,microsomal CLint,[16],34 µL/min/mg
same,clearance,[17],13 mL/min/kg
same,concentration at 24 h,[18],395 ng/mL
same,fold change (FC),[19],25
same,AUC(0-inf),[20],5740 ng·h/mL
same,AUC(0-inf),[21],9270 ng·h/mL
same,clearance,[22],11 mL/min/kg
same,clearance,[23],9 mL/min/kg
same,half-life,[24],4.4 h
same,half-life,[25],14 h
same,concentration at 24 h,[26],334 ng/mL
same,fold change (FC),[27],20
same,log(activity),Hepatitis B virus [28],1.4
same,log(activity),Hepatitis B virus [29],2.5
same,Activity,Hepatitis B virus [30],inactive
same,Activity,Hepatitis B virus [31],inactive
same,EC50,Hepatitis B virus [32],0.197 µM
same,EC50,Hepatitis B virus [33],0.175 µM
same,Activity,Hepatitis B virus [34],inactive
same,Activity,Hepatitis B virus [35],inactive
